System: healthy participants
Assay: Phase 1 study: Rapid Visual Information Processing (RVPA)
Type: in vivo, human
Conditions: Treatment V6 Day 28 (remote)
From the text: In some embodiments, the Rapid Visual Information Processing (RVP) test is utilized to evaluate the safety and efficacy of psilocybin. The RVP is a measure of sustained attention outputting measures of response accuracy, target sensitivity and reaction times. In this test, the study subject is required to monitor a stream of digits from 2 to 9 for specific sequences (e.g., 3-5-7) and to acknowledge detection of the sequence by touching the on-screen response button as quickly as possible after presentation of the third digit. Digits are presented pseudorandomly to create the possibility of ‘false alarm’ responses in which the first 2 digits of a sequence are not followed by a true target, e.g., when 3 is followed by a 5, but not then by a 7. In order to complete the task successfully study subjects must sustain attention to the white box in which the digits appear. Performance on this task is measured by the speed of response to the presentation of the final digit of a target, as well as the study subject's ability to detect specified sequences. […]
To assess the effects of psilocybin on cognitive processing, a clinical trial testing psilocybin in healthy participants was performed. […] Rapid visual information processing (RVP), a sensitive measure of sustained attention, was assessed twice prior to dosing (Day 0): during screening (Day −2) and at baseline (Day −1). […]

CN(C)CCc1c[nH]c2cccc(OP(=O)(O)O)c12 [Psilocybin, psilocybin]
RVPA difference of least squares mean compared to placebo group, LS mean Estimate (10 mg single oral): 0.01096 | RVPA difference of least squares mean compared to placebo group, LS mean Estimate (25 mg single oral): 0.01225

Reference: patent US12377112B2, “Methods of treating neurocognitive disorders, chronic pain and reducing inflammation” (priority 2019, dated 2025)
